One may read the IC50 as the concentration that gives 50% inhibition.

The values below come from patent US20150031714A1, “METHODS AND COMPOSITIONS FOR PREVENTION OF ALLERGIC REACTION” (Baylor College of Medicine, priority 2013, published 2015).

The subject of assay [1] is Stat3 (pY705). As to the kind of experiment: Immunoblot assay of IL-6-mediated phosphorylation of Stat3 in HepG2 cells. Format: cell-based. As to conditions: Homo sapiens; Table 4; HepG2, compound 60 min, IL-6 30 ng/ml 30 min; read-out: pStat3 IC50. As for the experimental part:
Cells were then stimulated with IL-6 (30 ng/ml) for 30 min. Protein extracts of cells were separated by SDS-PAGE, blotted and developed serially with antibodies to pStat3, total Stat3 and β-actin. Blots were stripped between each antibody probing. The bands intensities of immunoblot were quantified by densitometry. The value of each pStat3 band's intensity was divided by each corresponding value of total Stat3 band intensity and the results normalized to the DMSO-treated control value and plotted as a function of the log compound concentration. The best-fit curves were generated based on 4 Parameter Logistic Model/Dose Response One Site/XLfit 4.2, IDBS. Each panel is representative of 3 or more experiments.
Immunoblot assay. The human hepatocellular carcinoma cell line (HepG2) was grown in 6-well plates under standard conditions. Cells were pretreated with compounds (0, 1, 3, 10, 30, 100 and 300 uM) for 1 hour then stimulated under optimal conditions with either interferon gamma (IFN-γ; 30 ng/ml for 30 min) to activate Stat1 or interleukin-6 (IL-6; 30 ng/ml for 30 min) to activate Stat3 (30-31). Cultures were then harvested and proteins extracted using high-salt buffer, as described (Shao et al., 2006). […]
EXP IIC. […] Band intensities are quantified by densitometry. […]
For orientation: Immunoblotting shows a protein as a band on a membrane.

Assay [2] deals with Stat1 (pY701). As to the kind of experiment: Immunoblot assay of IFN-γ-mediated Stat1 phosphorylation in HepG2 cells. The class given is cell-based, human. The settings on record: 300 μM, 1 hour at 37° C. The procedure:
HepG2 cells were pretreated with DMSO alone or DMSO containing each of the compounds at a concentration of 300 μM for 60 min. Cells were then stimulated with IFN-γ (30 ng/ml) for 30 min. Protein extracts of cells were separated by SDS-PAGE and immunoblotted serially with antibodies to pStat1, total Stat1 and β-actin. Blots were stripped between each immunoblotting. The results shown are representative of 2 or more experiments.
Immunoblot assay. The human hepatocellular carcinoma cell line (HepG2) was grown in 6-well plates under standard conditions. Cells were pretreated with compounds (0, 1, 3, 10, 30, 100 and 300 uM) for 1 hour then stimulated under optimal conditions with either interferon gamma (IFN-γ; 30 ng/ml for 30 min) to activate Stat1 or interleukin-6 (IL-6; 30 ng/ml for 30 min) to activate Stat3 (30-31). Cultures were then harvested and proteins extracted using high-salt buffer, as described (Shao et al., 2006). Briefly, extracts were mixed with 2× sodium dodecyl sulfate (SDS) sample buffer (125 mmol/L Tris-HCL pH 6.8; 4% SDS; 20% glycerol; 10% 2-mercaptoethanol) at a 1:1 ratio and heated for 5 minutes at 100° C. Proteins (20 μg) were separated by 7.5% SDS-PAGE and transferred to polyvinylidene fluoride (PVDF) membrane (Millipore, Waltham, Mass.) and immunoblotted. Prestained molecular weight markers (Biorad, Hercules, Calif.) were included in each gel. Membranes were probed serially with antibody against Stat1 pY^701 or Stat3 pY^705 followed by antibody against Stat1 or Stat3 (Transduction labs, Lexington, Ky.) then antibody against β-actin (Abcam, Cambridge, Mass.). Membranes were stripped between antibody probing using Restore™ Western Blot Stripping Buffer (Thermo Fisher Scientific Inc., Waltham, Mass.) per the manufacturer's instructions. Horseradish peroxidase-conjugated goat-anti-mouse IgG was used as the secondary antibody (Invitrogen Carlsbad, Calif.) and the membranes were developed with enhanced chemiluminescence (ECL) detection system (Amersham Life Sciences Inc.; Arlington Heights, Ill.).
While Stat3 contributes to oncogenesis, in part, through inhibition of apoptosis, Stat1 is anti-oncogenic; it mediates the apoptotic effects of interferons and contributes to tumor surveillance (Kaplan et al., 1998; Ramana et al., 2000). Consequently, compounds that target Stat3 while sparing Stat1, leaving its anti-oncogenic functions unopposed, may result in a synergistic anti-tumor effect. […] Thus, five of the six exemplary compounds identified were selective and inhibited ligand-stimulated phosphorylation of Stat3 but not Stat1.
EXP IIC. Ligand-mediated pStat3 and pStat1 inhibition assays. […] Briefly, human hepatocellular carcinoma cells (HepG2) are grown in 6-well plates and pretreated with compounds (0, 0.1, 0.3, 1, 3, 10, 30, 100 μM) for 1 hour then stimulated under optimal conditions with either interleukin-6 (IL-6; 30 ng/ml for 30 min) to activate Stat3 or interferon gamma (IFN-γ; 30 ng/ml for 30 min) to activate Stat1. Cells are harvested and proteins extracted using high-salt buffer, mixed with 2× sodium dodecyl sulfate (SDS) sample buffer (125 mmol/L Tris-HCL pH 6.8; 4% SDS; 20% glycerol; 10%2-mercaptoethanol) at a 1:1 ratio then heated for 5 minutes at 100° C. Proteins (20 μg) are separated by 7.5% SDS-PAGE and transferred to polyvinylidene fluoride (PVDF) membrane (Millipore, Waltham, Mass.) and immunoblotted. Membranes are probed serially with antibody against Stat1 pY701 or Stat3 pY705 followed by antibody against Stat1 or Stat3 (Transduction labs, Lexington, Ky.) then antibody against β-actin (Abcam, Cambridge, Mass.). Membranes are stripped between antibody probings using Restore™ Western Blot Stripping Buffer (Thermo Fisher Scientific Inc., Waltham, Mass.) per the manufacturer's instructions. […]

Molecules are shown by their SMILES.

For the compound `O=C(O)c1ccc(C=CC(=O)c2ccc3c(c2)OCCO3)cc1` [Cpd3, 4-[3-(2,3-dihydro-1,4-benzodioxin-6-yl)-3-oxo-1-propen-1-yl]benzoic acid], the IC50 in assay [1] was 91 µM. Moreover, the “Stat1 phosphorylation after IFN-γ stimulation” value in assay [2] is listed as “did not”.
Turning to `CCOc1cc(C=C2C(=O)c3ccccc3C2=O)cc(Cl)c1OCc1cccc(C(=O)O)c1` [Cpd3-2, 3-({2-chloro-4-[(1,3-dioxo-1,3-dihydro-2H-inden-2-ylidene)methyl]-6-ethoxyphenoxy}methyl)benzoic acid], the half-maximal inhibitory concentration (IC50) in assay [1] turned out to be 144 µM. The “Stat1 phosphorylation after IFN-γ stimulation” value in assay [2] was “did not”.
